Experimental data published in ChEMBL document CHEMBL5725254, “Substituted annulated triazines and use thereof” (2016).

Target: cGMP-specific 3',5'-cyclic phosphodiesterase (Homo sapiens, UniProt O76074)
Experiment: Inhibition Assay: To determine their in vitro action on human PDE 5, the test substances are dissolved in 100% DMSO and serially diluted. Typically, dilution series (1:3) from 200 uM to 0.091 uM are prepared (resulting final concentrations in the test: 4 uM to 0.0018 uM). In each case 2 ul of the diluted substance solutions are placed into the wells of microtitre plates (Isoplate-96/200W; Perkin Elmer). Subsequently, 50 ul of a dilution of the above-described PDE 5 preparation are added. The dilution of the PDE 5 preparation is chosen such that during the later incubation less than 70% of the substrate are converted (typical dilution: 1:100; dilution buffer: 50 mM Tris/hydrochloric acid pH 7.5, 8.3 mM magnesium chloride, 1.7 mM EDTA, 0.2% BSA). The substrate, [8-3H] cyclic guanosine-3',5'-monophosphate (1 uCi/ul; Perkin Elmer) is diluted 1:2000 with assay buffer (50 mM tris/hydrochloric acid pH 7.5, 8.3 mM magnesium chloride, 1.7 mM EDTA) to a concentration of 0.0005 uCi/ul. By addition of 50 ul (0.025 uCi) of the diluted substrate, the enzyme reaction is finally started. The test mixtures are incubated at room temperature for 60 min and the reaction is stopped by adding 25 ul of a suspension of 18 mg/ml yttrium scintillation proximity beads in water (phosphodiesterase beads for SPA assays, RPNQ 0150, Perkin Elmer). […]

SMILES: CC1(C)C(=O)Nc2nc(-c3nn(Cc4ccccc4F)c4ncc(F)cc34)nc(CNC(=O)C3CC3)c21
- IC50: 570 nM
